Source: patent US20250361234A1 (NICO THERAPEUTICS, INC., priority 2022, published 2025)

Target: T1, full-length SARM1 (FL-SARM1) (Homo sapiens, UniProt Q6SZW1)
T1 sequence (Q6SZW1 28-724): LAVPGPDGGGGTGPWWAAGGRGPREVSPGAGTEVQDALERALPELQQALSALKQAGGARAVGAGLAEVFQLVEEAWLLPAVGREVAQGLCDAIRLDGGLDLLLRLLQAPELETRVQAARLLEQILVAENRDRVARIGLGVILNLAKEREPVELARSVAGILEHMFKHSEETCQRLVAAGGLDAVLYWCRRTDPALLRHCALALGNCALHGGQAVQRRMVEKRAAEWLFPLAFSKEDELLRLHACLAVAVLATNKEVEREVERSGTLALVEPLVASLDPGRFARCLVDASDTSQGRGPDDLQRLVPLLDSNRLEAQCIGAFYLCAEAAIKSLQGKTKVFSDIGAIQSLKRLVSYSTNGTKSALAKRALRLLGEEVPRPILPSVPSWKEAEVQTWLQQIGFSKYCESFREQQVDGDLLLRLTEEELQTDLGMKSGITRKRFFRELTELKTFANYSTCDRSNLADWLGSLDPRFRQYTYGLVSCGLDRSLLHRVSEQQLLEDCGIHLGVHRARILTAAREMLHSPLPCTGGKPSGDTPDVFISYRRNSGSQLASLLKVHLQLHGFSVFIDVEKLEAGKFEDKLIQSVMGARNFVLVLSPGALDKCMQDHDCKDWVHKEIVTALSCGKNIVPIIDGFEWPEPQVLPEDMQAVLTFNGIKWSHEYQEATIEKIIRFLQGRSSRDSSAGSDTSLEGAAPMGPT
Assay: FL-SARM1 cellular lysate assay (NAD/NADH-Glo readout of remaining NAD+)
Settings: SARM1 cellular lysate from transfected HEK293T cells, NAD+ and NMN, 11 point curve

SMILES | IC50 (Activity (μM)) [µM] | IC50 (Activity) [µM]
C[C@@H]1CC2C[C@@H](C1)N2C(=O)Nc1ccc(F)c(-c2cncc(F)c2)c1 (single isomer, unassigned) [Example 57, trans-N-(4-fluoro-3-(5-fluoropyridin-3-yl)phenyl)-3-methyl-6-azabicyclo[3.1.1]heptane-6-carboxamide] | 0.3 | 0.0001 to 1
Cc1ccc(NC(=O)N2C3C[C@H]2C[C@]2(C3)CC2(F)F)cc1-c1cncc(F)c1 (stereo in doubt) [Example 10, trans-2′,2′-difluoro-N-(3-(5-fluoropyridin-3-yl)-4-methylphenyl)-6-azaspiro[bicyclo[3.1.1]heptane-3,1′-cyclopropane]-6-carboxamide] | 0.3 | 0.0001 to 1
Cc1ccc(NC(=O)N2C3CCCC2C3)cc1-c1cccnc1 [Example 86, N-(4-methyl-3-(pyridine-3-yl)phenyl)-6-azabicyclo[3.1.1]heptane-6-carboxamide] | 0.2 | 0.0001 to 1
COC[C@H]1C2CCC[C@H]1N2C(=O)Nc1ccc(C)c(-c2cncc(F)c2)c1 [Example 44, N-trans-(3-(5-fluoropyridin-3-yl)-4-methylphenyl)-7-(methoxymethyl)-6-azabicyclo[3.1.1]heptane-6-carboxamide] | 17.2 | > 10
Cc1ccc(NC(=O)CC2CCC2)cc1-c1cccnc1 [Example 114, 2-cyclobutyl-N-(4-methyl-3-pyridin-3-ylphenyl)acetamide] | 4.3 | 1 to 10
Cc1ccc(NC(=O)N2C3CCCC2(C#N)C3)cc1-c1cncc(F)c1 (centres unmarked) [Example 96, 1-cyano-N-[3-(5-fluoropyridin-3-yl)-4-methylphenyl]-6-azabicyclo[3.1.1]heptane-6-carboxamide] | 0.07 | 0.0001 to 1
C[C@@H]1CC2C[C@@H](C1)N2C(=O)Nc1ccc(C2CC2)c(-c2cncc(F)c2)c1 (single isomer, unassigned) [Example 50, trans-N-(4-cyclopropyl-3-(5-fluoropyridin-3-yl)phenyl)-3-methyl-6-azabicyclo[3.1.1]heptane-6-carboxamide] | 0.2 | 0.0001 to 1
Cc1ccc(NC(=O)N2C3C[C@H](OC(F)F)C[C@H]2C3)cc1-c1cncc(F)c1 [Example 56, trans-3-(difluoromethoxy)-N-(3-(5-fluoropyridin-3-yl)-4-methylphenyl)-6-azabicyclo[3.1.1]heptane-6-carboxamide] | 0.09 | 0.0001 to 1
Cc1ccc(NC(=O)N2C3CC2CC2(CC2)C3)cc1-c1cncc(F)c1 [Example 54, N-(3-(5-fluoropyridin-3-yl)-4-methylphenyl)-6-azaspiro[bicyclo[3.1.1]heptane-3,1′-cyclopropane]-6-carboxamide] | 0.06 | 0.0001 to 1
C[C@@H]1CC2C[C@H](C1)N2C(=O)Nc1ccc(C2CC2)c(-c2cncc(F)c2)c1 (single isomer, unassigned) [Example 51, cis-N-(4-cyclopropyl-3-(5-fluoropyridin-3-yl)phenyl)-3-methyl-6-azabicyclo[3.1.1]heptane-6-carboxamide] | 0.2 | 0.0001 to 1
C[C@@H]1CC2C[C@H](C1)N2C(=O)Nc1ccc(C(F)F)c(-c2cncc(F)c2)c1 [Example 42, cis-N-(4-(difluoromethyl)-3-(5-fluoropyridin-3-yl)phenyl)-3-methyl-6-azabicyclo[3.1.1]heptane-6-carboxamide] | 0.06 | 0.0001 to 1
Cc1ccc(NC(=O)N2C3C[C@@H](C)C[C@@H]2C3)cc1-c1cncc(F)c1 (single isomer, unassigned) [Example 83, trans-N-(3-(5-fluoropyridin-3-yl)-4-methylphenyl)-3-methyl-6-azabicyclo[3.1.1]heptane-6-carboxamide] | 0.01 | 0.0001 to 1
Cc1ccc(NC(=O)N2C3C[C@H]2C[C@@H](C(C)(C)O)C3)cc1-c1cncc(F)c1 [Example 9, cis-N-(3-(5-fluoropyridin-3-yl)-4-methylphenyl)-3-(2-hydroxypropan-2-yl)-6-azabicyclo[3.1.1]heptane-6-carboxamide] | 4.2 | 1 to 10
